Assay results as given in PubChem BioAssay AID212 (DTP/NCI, 2004).
“And” between values parts separate entries of the source, which are not always exact repeats. Equal values may be shown once. Results filed as inconclusive are left out.

Test system: BDF1 mice, colon carcinoma 38 sc, T/C %
Experiment: NCI In Vivo Anticancer Drug Screen. Data for tumor model Colon Carcinoma 38 (subcutaneous) in B6D2F1 (BDF1) mice
How it was run: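 Ratio of survival or tumor size, compound-treated animals relative to vehicle controls, in tumor-bearing mice.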

[1] = endpoint: median tumor weight (est.), dose: 100.0 mg/kg/injection, schedule: Q07DX002 (ip), vehicle: water, higher = larger tumour
[2] = endpoint: median tumor weight (est.), dose: 200.0 mg/kg/injection, schedule: Q07DX002 (ip), vehicle: water, higher = larger tumour
[3] = endpoint: median tumor weight (est.), dose: 200.0 mg/kg/injection, schedule: Q07DX002 (ip), vehicle: saline with Tween-80, higher = larger tumour
[4] = endpoint: median tumor weight (est.), dose: 400.0 mg/kg/injection, schedule: Q07DX002 (ip), vehicle: saline with Tween-80, higher = larger tumour

NC(=O)c1c[se]c(C2OC(CO)C(O)C2O)n1 (stereo not drawn)
T/C (endpoint: median tumor weight (est.), dose: 25.0 mg/kg/injection, schedule: Q07DX002 (ip), vehicle: water, higher = larger tumour): 56 % of control
T/C (endpoint: median tumor weight (est.), dose: 50.0 mg/kg/injection, schedule: Q07DX002 (ip), vehicle: saline, higher = larger tumour): 79 % of control
T/C (endpoint: median tumor weight (est.), dose: 50.0 mg/kg/injection, schedule: Q07DX002 (ip), vehicle: water, higher = larger tumour): 74 % of control
T/C (endpoint: median tumor weight (est.), dose: 100.0 mg/kg/injection, schedule: Q07DX002 (ip), vehicle: saline, higher = larger tumour): 89 % of control
T/C [1]: 44 % of control
T/C (endpoint: median tumor weight (est.), dose: 200.0 mg/kg/injection, schedule: Q07DX002 (ip), vehicle: saline, higher = larger tumour): 73 % of control
T/C [2]: 42 % of control
T/C (endpoint: median tumor weight (est.), dose: 400.0 mg/kg/injection, schedule: Q07DX002 (ip), vehicle: saline, higher = larger tumour): 74 % of control
T/C (endpoint: median tumor weight (est.), dose: 400.0 mg/kg/injection, schedule: Q07DX002 (ip), vehicle: water, higher = larger tumour): 40 % of control
T/C (endpoint: median tumor weight (est.), dose: 800.0 mg/kg/injection, schedule: Q07DX002 (ip), vehicle: saline, higher = larger tumour): 90 % of control

O=C(O)c1c2c(nc3ccccc13)Cc1ccccc1-2
T/C (endpoint: median tumor weight (est.), dose: 12.5 mg/kg/injection, schedule: Q07DX002 (ip), vehicle: water, higher = larger tumour): 121 % of control and 100 % of control
T/C [1]: 99 % of control
T/C [2]: 62 % of control

CN(C)C1C(=O)C(C(=O)NP(=O)(NCCCO)N(CCCl)CCCl)=C(O)C2(O)C(=O)C3=C(O)c4c(O)cccc4C(C)(O)C3CC12 (stereo not drawn)
T/C (endpoint: median tumor weight (est.), dose: 50.0 mg/kg/injection, schedule: Q07DX002 (ip), vehicle: saline with Tween-80, higher = larger tumour): 82 % of control
T/C (endpoint: median tumor weight (est.), dose: 100.0 mg/kg/injection, schedule: Q07DX002 (ip), vehicle: saline with Tween-80, higher = larger tumour): 95 % of control
T/C [3]: 56 % of control
T/C [4]: 17 % of control

COC1=C(N)C(=O)c2nc(-c3nc(C(=O)O)c(C)c(-c4ccc(OC)c(OC)c4O)c3N)ccc2C1=O
T/C (endpoint: median tumor weight (est.), dose: 0.05 mg/kg/injection, schedule: Q07DX003 (ip), vehicle: Klucel (hydroxypropylcellulose) (HPC), higher = larger tumour): 110 % of control
T/C (endpoint: median tumor weight (est.), dose: 0.1 mg/kg/injection, schedule: Q07DX003 (ip), vehicle: Klucel (hydroxypropylcellulose) (HPC), higher = larger tumour): 93 % of control
T/C (endpoint: median tumor weight (est.), dose: 0.2 mg/kg/injection, schedule: Q07DX003 (ip), vehicle: Klucel (hydroxypropylcellulose) (HPC), higher = larger tumour): 111 % of control
T/C (endpoint: median tumor weight (est.), dose: 0.4 mg/kg/injection, schedule: Q07DX003 (ip), vehicle: Klucel (hydroxypropylcellulose) (HPC), higher = larger tumour): 83 % of control

CN1CCN(Cc2nc3cccc4c3c([n+]2[O-])-c2ccccc2-4)CC1
T/C (endpoint: median tumor weight (est.), dose: 3.12 mg/kg/injection, schedule: Q07DX002 (ip), vehicle: saline with Tween-80, higher = larger tumour): 72 % of control
T/C (endpoint: median tumor weight (est.), dose: 6.25 mg/kg/injection, schedule: Q07DX002 (ip), vehicle: saline with Tween-80, higher = larger tumour): 58 % of control
T/C (endpoint: median tumor weight (est.), dose: 12.5 mg/kg/injection, schedule: Q07DX002 (ip), vehicle: saline with Tween-80, higher = larger tumour): 81 % of control and 98 % of control and 106 % of control
T/C [3]: 65 % of control and 75 % of control
T/C [4]: 79 % of control

CCOc1cc2c(cc1C(C)c1ccc(OC)cc1)OCO2 (stereo not drawn)
T/C (endpoint: median tumor weight (est.), dose: 50.0 mg/kg/injection, schedule: Q07DX002 (ip), vehicle: distilled water + Tween-80 + alcohol, higher = larger tumour): 72 % of control
T/C (endpoint: median tumor weight (est.), dose: 100.0 mg/kg/injection, schedule: Q07DX002 (ip), vehicle: distilled water + Tween-80 + alcohol, higher = larger tumour): 100 % of control
T/C (endpoint: median tumor weight (est.), dose: 400.0 mg/kg/injection, schedule: Q07DX002 (ip), vehicle: distilled water + Tween-80 + alcohol, higher = larger tumour): 100 % of control

Cc1cc2c(=O)cc(-c3ccccc3Cl)oc2c(C(=O)O)c1C
T/C (endpoint: median tumor weight (est.), dose: 100.0 mg/kg/injection, schedule: Q07DX002 (ip), vehicle: sodium bicarbonate, higher = larger tumour): 56 % of control
T/C (endpoint: median tumor weight (est.), dose: 200.0 mg/kg/injection, schedule: Q07DX002 (ip), vehicle: sodium bicarbonate, higher = larger tumour): 35 % of control
T/C (endpoint: median tumor weight (est.), dose: 400.0 mg/kg/injection, schedule: Q07DX002 (ip), vehicle: sodium bicarbonate, higher = larger tumour): 40 % of control

N[C@H](C(=O)O)[C@@H]1CC(Cl)=NO1
T/C (endpoint: median survival time, dose: 25.9 mg/kg/injection, schedule: Q04DX002 (ip), vehicle: suspension in saline, higher = longer survival): 113 % of control
T/C (endpoint: median survival time, dose: 43.2 mg/kg/injection, schedule: Q04DX002 (ip), vehicle: suspension in saline, higher = longer survival): 122 % of control
T/C (endpoint: median survival time, dose: 72.0 mg/kg/injection, schedule: Q04DX002 (ip), vehicle: suspension in saline, higher = longer survival): 114 % of control
T/C (endpoint: median survival time, dose: 200.0 mg/kg/injection, schedule: Q04DX002 (ip), vehicle: suspension in saline, higher = longer survival): 119 % of control
T/C (endpoint: median tumor weight (est.), dose: 1.0 mg/kg/injection, schedule: Q07DX003 (ip), vehicle: saline, higher = larger tumour): 114 % of control
T/C (endpoint: median tumor weight (est.), dose: 2.0 mg/kg/injection, schedule: Q07DX003 (ip), vehicle: saline, higher = larger tumour): 71 % of control and 79 % of control
T/C (endpoint: median tumor weight (est.), dose: 4.0 mg/kg/injection, schedule: Q07DX003 (ip), vehicle: saline, higher = larger tumour): 86 % of control
T/C (endpoint: median tumor weight (est.), dose: 8.0 mg/kg/injection, schedule: Q07DX003 (ip), vehicle: saline, higher = larger tumour): 156 % of control
T/C (endpoint: median tumor weight (est.), dose: 16.0 mg/kg/injection, schedule: Q07DX003 (ip), vehicle: saline, higher = larger tumour): 69 % of control
T/C (endpoint: median tumor weight (est.), dose: 32.0 mg/kg/injection, schedule: Q07DX003 (ip), vehicle: saline, higher = larger tumour): 69 % of control
T/C (endpoint: median tumor weight (est.), dose: 64.0 mg/kg/injection, schedule: Q07DX003 (ip), vehicle: saline, higher = larger tumour): 78 % of control
